Data on 14 compounds can be found in article PMC9820279 (International Journal of Molecular Sciences, 2022).

Details of series [1]: method as in PMID 35782945, PMID 34869538, PMID 34209864, PMID 35498984, PMID 34923590. The settings on record: previously studied by the group; cited from earlier work.
The next series has as its system BChE. The settings on record: previously studied by the group; cited from earlier work.
In a further series the test system is AChE. As to conditions: previously studied by the group; cited from earlier work.
For series [2] the following is noted: cited from earlier work.
A further series has as its system LOX. The arrangement: method as in PMID 35782945, PMID 34869538, PMID 34209864, PMID 35498984, PMID 34923590. As to conditions: previously studied by the group; cited from earlier work.
Setting [3] is: matrix ASFE extract 24 µg/mL, 2 h incubation, n.d = not detected in lower compartment.
[4] abbreviates: matrix ASFE extract 24 µg/mL, 4 h incubation, n.d = not detected in lower compartment.

Like-named read-outs stand apart in the source and are kept apart here.

Experimental for HBMEC monolayer: The cell line HBMEC was used as a simplified in vitro model of the BBB endothelium. […] Endothelial cell cultures were maintained at 37 °C in a humid atmosphere enriched with 5% CO2. In our studies, HBMEC were used between passage 25 and 29. For experiments, HBMECs were seeded using a volume of 200 µL at a density of 8 × 10^4 cells/mL in rat tail collagen-I (100 µg/mL) coated 96-well plates (for viability assay) or 500 µL at a density of 1.6 × 10^5 cells/mL in rat tail collagen-I (100 µg/mL) coated semi-permeable membranes in transwell inserts (0.4 µm pore, Corning Costar Corp., USA; for BBB integrity and transport assays) for 12-well plates. The incubation timepoints were assay dependent.
For the transendothelial transport assays, HBMEC were seeded on transwell inserts as described above and are schematically depicted in Figure 1a. After seeding, the media were changed every two days. Four days post-seeding, the HBMEC monolayer was formed, and the transport studies were performed. […] Vupper and Vlower is the upper and lower compartment volume (0.5 and 1.5 mL, respectively). The culture inserts were used for the subsequent integrity permeability studies.

`O=C1O[C@H]([C@@H](O)CO)C(O)=C1O` [Ascorbic acid]: the “RNS IC50” value in series [1] was 1100.9 µg/mL.

As to `COc1ccc2c3c1O[C@H]1C[C@@H](O)C=C[C@@]31CCN(C)C2` [Galantamine], the “BChE IC50” value with BChE was 2.36 µg/mL. Also, in the series with AChE, the “AChE IC50” value is on record as 0.40 µg/mL.

For `O=c1c(O[C@@H]2O[C@H](CO)[C@@H](O)[C@H](O)[C@H]2O)c(-c2ccc(O)c(O)c2)oc2cc(O)cc(O)c12` [Isoquercitrin], in series [2] (PAMPA), the “Crossing of the in vitro PAMPA-BBB” value is “not capable of crossing”. Also, the “Te % (SEM) 2 h” value in the series with HBMEC monolayer (human, 2 h, 30 µg/mL) is on record as 6.0 (0.2) %. Also, in the series with HBMEC monolayer (human, 4 h, 30 µg/mL), the “Te % (SEM) 4 h” value is reported as 16.3 (1.3) %.

In the case of `C=C(C)[C@@H]1CC[C@]2(C)CC[C@]3(C)[C@H](CC[C@@H]4[C@@]5(C)CC[C@H](OC(C)=O)C(C)(C)[C@@H]5CC[C@]43C)[C@@H]12` [Lupeol acetate], the “Detection in the PAMPA-BBB model” value in series [2] (OL-SS extract compounds) is recorded as “not detected”. For the same compound, the “Detection in basolateral compartment (brain side) of HBMEC-BBB model” value (“Detection in basolateral compartment” below) in the series on HBMEC monolayer (OL-SS extract) was “not detected”.

With `CC(C)=CCC/C(C)=C\CO` [Nerol], the “Crossing of the PAMPA-BBB system” value in series [2] (PLE100 extract compounds) is “could not cross”. Also, the “Detection in basolateral compartment” value with HBMEC monolayer (PLE100 extract) is reported as “detected in the basolateral compartment”. Also, in the series on HBMEC monolayer (human), the “Te % (SEM) 2 h” value is 26.8 (0.2) % and the “Te % (SEM) 4 h” value was 41.5 (3.1) %.

For `Oc1cc(O)c2c(c1)O[C@H](c1ccc(O)c(O)c1)[C@H](O)[C@H]2c1c(O)cc(O)c2c1O[C@H](c1ccc(O)c(O)c1)[C@H](O)C2` [Procyanidin B2], the “Detection in the lower well of the PAMPA-BBB model” value (“Detection in the lower well” below) in series [2] (PAMPA) is “not detected in the lower well”. Besides, the “Detection / transport to lower compartment (brain side) of HBMEC-BBB model” value with HBMEC monolayer (ASFE extract) was “could reach the “brain side””. In addition, the “Te % (SEM) 2 h” value with HBMEC monolayer (setting [3]) is reported as 56.8 (0.0) %. Besides, the “Te % (SEM) 4 h” value in the series with HBMEC monolayer (setting [4]) is 61.9 (2.6) %.

As for `Oc1cccc(O)c1O` [Pyrogallol], in series [2] (ASFE extract compounds), the “Detection in the lower well” value is on record as “not detected in the lower well”. The “Detection / transport to lower compartment (brain side) of HBMEC-BBB model” value in the series on HBMEC monolayer is reported as “could reach the “brain side””. The “Te % (SEM) 2 h” value in the series on HBMEC monolayer (human, 2 h, 24 µg/mL) is 37.6 (2.6) %. Besides, in the series on HBMEC monolayer (human, 4 h, 24 µg/mL), the “Te % (SEM) 4 h” value is listed as 80.5 (1.1) %.

Consider `O=c1c(O)c(-c2ccc(O)c(O)c2)oc2cc(O)cc(O)c12` [Quercetin], for which, in the series with LOX, the “LOX IC50” value is listed as 125.7 µg/mL.

In the case of `COc1cc(/C=C/C(=O)O)cc(OC)c1O` [Sinapic acid], the “Detection in the lower well” value in series [2] (ASFE extract compounds) is listed as “not detected in the lower well”. In addition, the “Crossing of the in vitro PAMPA-BBB” value in series [2] (T33 extract compounds) is listed as “not capable of crossing”. For the same compound, in the series on HBMEC monolayer, the “Te % (SEM) 2 h” value is on record as 35.6 (2.0)/n.d % and the “Te % (SEM) 4 h” value is given as 44.4 (3.2)/18.6 (0.5) %. For the same compound, the “Detection / transport to lower compartment (brain side) of HBMEC-BBB model” value in the series on HBMEC monolayer (ASFE extract) is “could reach the “brain side””. In addition, the “Te % (SEM) 4 h” value with HBMEC monolayer (setting [4]) is on record as 44.4 (3.2)/18.6 (0.5) %.

Take `CC(C)=CCC/C(C)=C/CC/C(C)=C/CC/C=C(\C)CC/C=C(\C)CCC=C(C)C` [Squalene]: the “Crossing of the PAMPA-BBB system” value in series [2] (PLE100 extract compounds) is recorded as “could not cross”. In addition, the “Detection in basolateral compartment” value in the series with HBMEC monolayer (PLE100 extract) was “detected in the basolateral compartment”. Besides, the “Te % (SEM) 2 h” value in the series with HBMEC monolayer (matrix OL-SS extract 40 µg/mL, 2 h incubation, n.d = not detected in lower compartment) is listed as 24.1 (1.4) %; in the series on HBMEC monolayer (matrix PLE100 extract 15 µg/mL, 2 h incubation, n.d = not detected in lower compartment), 19.1 (1.4) %. Moreover, the “Te % (SEM) 4 h” value with HBMEC monolayer (matrix OL-SS extract 40 µg/mL, 4 h incubation, n.d = not detected in lower compartment) is 33.2 (0.9) %; with HBMEC monolayer (matrix PLE100 extract 15 µg/mL, 4 h incubation, n.d = not detected in lower compartment) it was 47.6 (1.5) %.

Regarding `Oc1ccc(/C=C/c2cc(O)cc3c2[C@@H](c2cc(O)cc(O)c2)[C@H](c2ccc(O)cc2)O3)cc1` [e-viniferin], in series [2] (ASFE extract compounds), the “Detection in the lower well” value is “not detected in the lower well”. The “Detection / transport to lower compartment (brain side) of HBMEC-BBB model” value with HBMEC monolayer (ASFE extract) is “could reach the “brain side””. In addition, the “Te % (SEM) 2 h” value with HBMEC monolayer (setting [3]) was 39.2 (2.2) %. In addition, the “Te % (SEM) 4 h” value with HBMEC monolayer (setting [4]) is on record as 45.9 (3.0) %.

`C[C@H]1[C@H](C)CC[C@]2(CO)CC[C@]3(C)C(=CC[C@@H]4[C@@]5(C)CC[C@H](O)C(C)(C)[C@@H]5CC[C@]43C)[C@H]12` [uvaol]: in series [2] (OL-SS extract compounds), the “Detection in the PAMPA-BBB model” value is reported as “detected in the acceptor well”. Further, the “Detection in basolateral compartment” value in the series on HBMEC monolayer (OL-SS extract) was “detected”.

As to `C[C@H]1[C@H](C)CC[C@]2(C)CC[C@]3(C)C(=CC[C@@H]4[C@@]5(C)CC[C@H](O)C(C)(C)[C@@H]5CC[C@]43C)[C@H]12` [α-Amyrin], in series [2] (OL-SS extract compounds), the “Detection in the PAMPA-BBB model” value is given as “not detected”. Also, the “Detection in basolateral compartment” value in the series with HBMEC monolayer (OL-SS extract) is given as “not detected”.

For the compound `CC1(C)CC[C@]2(C)CC[C@]3(C)C(=CC[C@@H]4[C@@]5(C)CC[C@H](O)C(C)(C)[C@@H]5CC[C@]43C)[C@@H]2C1` [β-Amyrin], in series [2] (PAMPA), the “Crossing of the PAMPA-BBB system” value is given as “not detected” and the “Detection in the PAMPA-BBB model” value is listed as “not detected”. Also, in the series with HBMEC monolayer (OL-SS extract), the “Detection in basolateral compartment” value is given as “not detected”. Further, in the series with HBMEC monolayer (PLE100 extract), the “Detection in basolateral compartment” value is “not detected”.
